This passage reports melting point results from patent US20200069648A1, “HALOALLYLAMINE PYRAZOLE DERIVATIVE INHIBITORS OF LYSYL OXIDASES AND USES THEREOF” (Pharmaxis Ltd., priority 2017, published 2020).

Counter-ions that a name gives are not always drawn.

`Cc1nn(Cc2ccc(S(C)(=O)=O)c(Cl)c2)c(C)c1C/C(F)=C/CN` (as salt: hydrochloride) [Compound 24, (Z)-4-(1-(3-chloro-4-(methylsulfonyl)benzyl)-3,5-dimethyl-1H-pyrazol-4-yl)-3-fluorobut-2-en-1-amine hydrochloride] yielded a melting point of 92 to 94 °C.

As for `CNS(=O)(=O)c1cc(F)c(Cn2nc(C)c(C/C(F)=C/CN)c2C)cc1F` (as salt: hydrochloride) [Compound 26, (Z)-4-((4-(4-amino-2-fluorobut-2-en-1-yl)-3,5-dimethyl-1H-pyrazol-1-yl)methyl)-2,5-difluoro-N-methylbenzenesulfonamide hydrochloride], the melting point lay within 100 to 103 °C.

As to `CCOC(=O)c1c(Cc2ccc(S(=O)(=O)N(C)C)cc2)c(C)nn1C/C(F)=C/CN` (as salt: hydrochloride) [Compound 27, (Z)-ethyl 1-(4-amino-2-fluorobut-2-enyl)-4-(4-(N,N-dimethylsulfamoyl)benzyl)-3-methyl-1H-pyrazole-5-carboxylate hydrochloride], the melting point was 157 to 159 °C.

`Cc1nn(C/C(F)=C/CN)c(C(=O)N(C)C)c1Cc1ccc(S(=O)(=O)N(C)C)cc1` (as salt: hydrochloride) [Compound 29, (Z)-1-(4-amino-2-fluorobut-2-enyl)-4-(4-(N,N-dimethylsulfamoyl)benzyl)-N,N,3-trimethyl-1H-pyrazole-5-carboxamide hydrochloride] displayed a melting point of 77 to 80 °C.

Turning to `Cc1nn(C/C(F)=C/CN)c(C(=O)O)c1Cc1ccc(S(=O)(=O)N(C)C)cc1` (as salt: hydrochloride) [Compound 30, (Z)-1-(4-amino-2-fluorobut-2-enyl)-4-(4-(N,N-dimethylsulfamoyl)benzyl)-3-methyl-1H-pyrazole-5-carboxylic acid hydrochloride], the melting point was in the range of 164 to 166 °C.

`Cc1c(Cc2ccc(S(=O)(=O)N(C)C)cc2)c(C(=O)O)nn1C/C(F)=C/CN` (as salt: hydrochloride) [Compound 31, (Z)-1-(4-amino-2-fluorobut-2-enyl)-4-(4-(N,N-dimethylsulfamoyl)benzyl)-5-methyl-1H-pyrazole-3-carboxylic acid hydrochloride] came in with a melting point of 262 to 264 °C.
